Key:
Experiment in all cases: relative viability (nuclei count vs DMSO), 5 days (fraction); higher = more cells survive
[1] = test system: NCI-H2126
Procedure, shortened: (§1)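 Nuclei were stained with Hoechst during a one-step fixation (final 0.05% Triton X-100, 1% formaldehyde, 1 ug/ml Hoechst) carried out 5 days after dosing, then counted on 4× images. The cells, lung cancer lines in 1536-well plates, had been dosed by pin tool the day after seeding with one drug alone or a fixed anchor-drug dose plus five library-drug doses (not always all listed) in √10 steps. Relative viability is the nuclei count in treated wells divided by that in vehicle wells, and each value is the median of duplicate plates.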

[2] = test system: RERF-LC-KJ
Procedure, shortened: as §1

[3] = test system: NCI-H522
Procedure, shortened: as §1

[4] = test system: NCI-H1355
Procedure, shortened: as §1

[5] = test system: NCI-H838
Procedure, shortened: as §1

[6] = test system: NCI-H23
Procedure, shortened: as §1

[7] = test system: SW 900
Procedure, shortened: as §1

[8] = test system: H3255
Procedure, shortened: as §1

[9] = test system: NCI-H1915
Procedure, shortened: as §1

[10] = test system: NCI-H1755
Procedure, shortened: as §1

[11] = test system: HCC-827
Procedure, shortened: as §1

[12] = test system: NCI-H1792
Procedure, shortened: as §1

[13] = test system: NCI-H3122
Procedure, shortened: as §1

[14] = test system: EMC-BAC-2
Procedure, shortened: as §1

[15] = test system: EKVX
Procedure, shortened: as §1

[16] = test system: NCI-H2405
Procedure, shortened: as §1

[17] = test system: HCC-15
Procedure, shortened: as §1

[18] = test system: LC-2-ad
Procedure, shortened: as §1

[19] = test system: HARA
Procedure, shortened: as §1

[20] = test system: LCLC-97TM1
Procedure, shortened: as §1

For `Nc1cccc2c1CN(C1CCC(=O)NC1=O)C2=O` (stereo unspecified) [Lenalidomide] + NC(=O)Nc1cc(-c2cccc(F)c2)sc1C(=O)N[C@H]1CCCNC1 [AZD7762] (partner 0.2 µM), the relative viability ([1]; first compound 0.253 µM) was 0.973, the relative viability ([1]; first compound 0.8 µM) was 1.03 and the relative viability ([1]; first compound 2.53 µM) was 1.05. The relative viability ([1]; first compound 8 µM) was 0.947, the relative viability ([2]; first compound 0.253 µM) was 1.01 and the relative viability ([2]; first compound 0.8 µM) was 0.319. It also gave a relative viability ([2]; first compound 2.53 µM) of 1.18, a relative viability ([2]; first compound 8 µM) of 0.82 and a relative viability ([3]; first compound 0.253 µM) of 0.858. The relative viability ([3]; first compound 0.8 µM) was 0.882, the relative viability ([3]; first compound 2.53 µM) was 0.758 and the relative viability ([3]; first compound 8 µM) was 0.758. It also gave a relative viability ([4]; first compound 0.253 µM) of 0.798, a relative viability ([4]; first compound 0.8 µM) of 0.59 and a relative viability ([4]; first compound 2.53 µM) of 0.765. It also gave a relative viability ([4]; first compound 8 µM) of 0.696, a relative viability ([5]; first compound 0.253 µM) of 0.938 and a relative viability ([5]; first compound 0.8 µM) of 0.871. For the same compound, the relative viability ([5]; first compound 2.53 µM) was 0.962, the relative viability ([5]; first compound 8 µM) was 1.03 and the relative viability ([6]; first compound 0.253 µM) was 0.253. The relative viability ([6]; first compound 2.53 µM) was 0.22, the relative viability ([6]; first compound 8 µM) was 0.229 and the relative viability ([7]; first compound 2.53 µM) was 0.578. For the same compound, the relative viability ([7]; first compound 8 µM) was 0.456, the relative viability ([8]; first compound 0.253 µM) was 0.936 and the relative viability ([8]; first compound 0.8 µM) was 0.747. It also gave a relative viability ([8]; first compound 2.53 µM) of 0.93, a relative viability ([8]; first compound 8 µM) of 0.823 and a relative viability ([9]; first compound 0.253 µM) of 0.678. The relative viability ([9]; first compound 0.8 µM) was 0.699, the relative viability ([9]; first compound 2.53 µM) was 0.739 and the relative viability ([9]; first compound 8 µM) was 0.682. It also gave a relative viability ([10]; first compound 0.253 µM) of 0.458, a relative viability ([10]; first compound 0.8 µM) of 0.498 and a relative viability ([10]; first compound 2.53 µM) of 0.452. For the same compound, the relative viability ([10]; first compound 8 µM) was 0.454, the relative viability ([11]; first compound 0.253 µM) was 0.264 and the relative viability ([11]; first compound 0.8 µM) was 0.325. For the same compound, the relative viability ([11]; first compound 2.53 µM) was 0.255, the relative viability ([11]; first compound 8 µM) was 0.206 and the relative viability ([12]; first compound 0.253 µM) was 0.894. It also gave a relative viability ([12]; first compound 0.8 µM) of 0.571, a relative viability ([12]; first compound 2.53 µM) of 0.971 and a relative viability ([12]; first compound 8 µM) of 0.479. It also gave a relative viability ([13]; first compound 0.253 µM) of 0.938, a relative viability ([13]; first compound 0.8 µM) of 1.03 and a relative viability ([13]; first compound 2.53 µM) of 1.06. The relative viability ([13]; first compound 8 µM) was 0.966, the relative viability ([14]; first compound 0.253 µM) was 1.12 and the relative viability ([14]; first compound 0.8 µM) was 0.64. It also gave a relative viability ([14]; first compound 2.53 µM) of 1.19, a relative viability ([14]; first compound 8 µM) of 0.931 and a relative viability ([15]; first compound 0.253 µM) of 0.735. The relative viability ([15]; first compound 0.8 µM) was 0.941, the relative viability ([15]; first compound 2.53 µM) was 0.805 and the relative viability ([15]; first compound 8 µM) was 0.7. The relative viability ([16]; first compound 0.253 µM) was 0.681, the relative viability ([16]; first compound 0.8 µM) was 0.498 and the relative viability ([16]; first compound 2.53 µM) was 0.815. The relative viability ([16]; first compound 8 µM) was 0.821, the relative viability ([17]; first compound 0.253 µM) was 1.11 and the relative viability ([17]; first compound 0.8 µM) was 1.22. It also gave a relative viability ([17]; first compound 2.53 µM) of 1.35, a relative viability ([17]; first compound 8 µM) of 1.36 and a relative viability ([18]; first compound 0.253 µM) of 0.902. The relative viability ([18]; first compound 0.8 µM) was 0.928, the relative viability ([18]; first compound 2.53 µM) was 0.865 and the relative viability ([18]; first compound 8 µM) was 0.94. The relative viability ([19]; first compound 0.253 µM) was 0.173, the relative viability ([19]; first compound 2.53 µM) was 0.296 and the relative viability ([19]; first compound 8 µM) was 0.434. It also gave a relative viability ([20]; first compound 0.253 µM) of 0.304, a relative viability ([20]; first compound 0.8 µM) of 0.114 and a relative viability ([20]; first compound 2.53 µM) of 0.364. For the same compound, the relative viability ([20]; first compound 8 µM) was 0.222.
